These results are taken from ChEMBL document CHEMBL4837257, “Discovery of the Oxadiazine FRM-024: A Potent CNS-Penetrant Gamma Secretase Modulator” (J Med Chem, 2021).

Each structure is given as a SMILES string.

In one series the target is Gamma-secretase. Nature of the series: (§1) Modulation of gamma-secretase in human H4 cells expressing human wild type APP751 assessed as reduction in amyloid beta42 level incubated overnight by ELISA. Type of series: cell-based. (In general: ELISA stands for enzyme-linked immunosorbent assay.)
Series [1] is described as follows: Unbound clearance in human hepatocytes. Type of series: ADME, cell-based, Hepatocyte.
Another series relates to Mus musculus. Nature of the series: In vivo modulation of gamma secretase in mouse assessed as reduction in Abeta42 levels in brain at 30 mg/kg, po measured after 6 hrs relative to control. More on the design: scale not given: the % may be the effect or the level left. Type of series: functional.
Series [2] has as its target Gamma-secretase (Homo sapiens) (UniProt Q96BI3+Q9NZ42+Q8WW43+P49768+Q92542+P49810). The series is described as §1. Type of series: cell-based. Conditions: filed as modulator.
Series [3] in a line: Ratio of free drug concentration in mouse brain to EC90 for modulation of gamma secretase in human H4 cells expressing human wild type APP751 assessed as reduction in amyloid beta42 level incubated overnight by ELISA. It is filed as ADME, cell-based.
Series [4] has as its system Rattus norvegicus. Nature of the series: In vivo modulation of gamma secretase in rat assessed as reduction in Abeta42 levels in brain at 30 mg/kg, po measured after 6 hrs by ELISA relative to control. Type of series: functional. Also noted: scale not given: the % may be the effect or the level left.
The nature of series [5]: Ratio of free drug concentration in rat brain to EC90 for modulation of gamma secretase in human H4 cells expressing human wild type APP751 assessed as reduction in amyloid beta42 level incubated overnight by ELISA. Type of series: ADME, cell-based.
The test system of series [6] is Rattus norvegicus. As to the kind of experiment: In vivo modulation of gamma secretase in rat assessed as reduction in Abeta42 levels in CSF at 30 mg/kg, po measured after 6 hrs by ELISA relative to control. It is filed as functional, Cerebrospinal fluid. More on the design: scale not given: the % may be the effect or the level left.

Turning to `COc1nc(C2=NOC(C)(C)C(c3ccc(Cl)cc3)N2)ccc1-n1cnc(C)c1` (stereo not given), the EC50 at Gamma-secretase stood at 0.023 µM. Further, the CL free in series [1] came out at 0.9 L/h/kg.

Consider `COc1nc(C2=NOCC(c3ccc(Cl)c(C)c3)N2)ccc1-n1cnc(C)c1` (stereo not given), for which the Activity in the series on Mus musculus came to 30%. In series [2], the EC90 came to 0.127 µM. Further, at Gamma-secretase, the EC50 is 0.01 µM. The molecule further registered a CL free in series [1] of 4.2 L/h/kg. Besides, the Ratio in series [3] came out at 1.3.

Turning to `COc1nc(C2=NOCC(c3ccc(C(C)(C)C)cc3)N2)ccc1-n1cnc(C)c1` (stereo not given), on Gamma-secretase, the EC50 amounted to 0.01 µM. In series [1], this molecule displayed a CL free of 19.2 L/h/kg.

Turning to `COc1nc(C2=NOCC(c3ccc(Cl)c(Cl)c3)N2)ccc1-n1cnc(C)c1` (stereo not given), in the series on Mus musculus, the Activity was found to be 37%. Besides, the concentration for an effect of 90% (EC90) in series [2] turned out to be 0.097 µM. The EC50 on Gamma-secretase was determined as 0.01 µM. For the same molecule, the Ratio in series [3] was 0.5.

On to `COc1nc(C2=NOCC(c3ccc(C)cc3)N2)ccc1-n1cnc(C)c1` (stereo not given), for which the EC50 on Gamma-secretase was determined as 0.074 µM. Moreover, in series [1], the CL free turned out to be 8.1 L/h/kg.

Take `COc1nc(C2=NOCC(c3ccc(C4CC4)cc3)N2)ccc1-n1cnc(C)c1` (stereo not given): the EC50 at Gamma-secretase turned out to be 0.039 µM. This molecule also returned a CL free in series [1] of 12.5 L/h/kg.

As to `COc1nc(C2=NOCC(c3cccc(C#N)c3)N2)ccc1-n1cnc(C)c1` (stereo not given), on Gamma-secretase, the EC50 was found to be 0.214 µM.

Take `COc1nc(C2=NOCC(c3cccc(Cl)c3)N2)ccc1-n1cnc(C)c1` (stereo not given): the EC50 on Gamma-secretase came to 0.026 µM. This molecule also registered a CL free in series [1] of 0.9 L/h/kg.

Regarding `COc1nc(C2=NOC(C)C(c3ccc(Cl)c(Cl)c3)N2)ccc1-n1cnc(C)c1` (stereo not given), on Gamma-secretase, the EC50 turned out to be 0.005 µM. Besides, the CL free in series [1] worked out at 1.2 L/h/kg.

For `COc1nc(C2=NOCC(c3ccc(Cl)c(F)c3)N2)ccc1-n1cnc(C)c1` (stereo not given), the Activity in the series with Mus musculus is 28%. For the same molecule, the EC90 in series [2] was 0.246 µM. Besides, at Gamma-secretase, the EC50 was 0.023 µM. In series [1], this molecule had a CL free of 1.92 L/h/kg. In series [3], the Ratio was 1.7.

As for `COc1nc(C2=NOCC(c3cc(Cl)cc(Cl)c3)N2)ccc1-n1cnc(C)c1` (stereo not given), the Activity in the series with Mus musculus came to 23%. Further, the EC90 in series [2] is 0.104 µM. Also, the concentration for a half-maximal effect (EC50) on Gamma-secretase is 0.01 µM. In series [1], the CL free stood at 5.1 L/h/kg. Further, the Ratio in series [3] came out at 0.8.

As for `COc1nc(C2=NOCC(c3ccc(C)c(Cl)c3)N2)ccc1-n1cnc(C)c1` (stereo not given), on Gamma-secretase, the EC50 worked out at 0.014 µM. Also, in series [1], the CL free was determined as 25.3 L/h/kg.

Turning to `COc1nc(C2=NOCC(c3ccc(Cl)cc3)N2)ccc1-n1cnc(C)c1` (stereo not given), the Activity with Mus musculus was determined as 26%. The EC90 in series [2] stood at 0.389 µM. In addition, the EC50 on Gamma-secretase is 0.037 µM. The molecule also registered a CL free in series [1] of 0.12 L/h/kg. Also, the Ratio in series [3] turned out to be 0.6.

Take `COc1nc(C2=NOCC(c3ccc(C4CC4)c(Cl)c3)N2)ccc1-n1cnc(C)c1` (stereo not given): the EC50 on Gamma-secretase is 0.013 µM. The molecule further displayed a CL free in series [1] of 68.82 L/h/kg.

For the molecule `COc1nc(C2=NOCC(c3ccc(C(F)(F)F)c(F)c3)N2)ccc1-n1cnc(C)c1` (stereo not given), on Gamma-secretase, the EC50 worked out at 0.021 µM. Further, the CL free in series [1] came out at 3.72 L/h/kg.

As for `COc1nc(C2=NOCC(c3cccc(C4CC4)c3)N2)ccc1-n1cnc(C)c1` (stereo not given), the EC50 on Gamma-secretase was 0.023 µM. The CL free in series [1] was 1.74 L/h/kg.

Turning to `COc1nc(C2=NOCC(c3ccc(C#N)cc3)N2)ccc1-n1cnc(C)c1` (stereo not given), the half-maximal effective concentration (EC50) on Gamma-secretase worked out at 0.45 µM.

Consider `COc1ccc(C2CON=C(c3ccc(-n4cnc(C)c4)c(OC)n3)N2)cc1` (stereo not given), for which the half-maximal effective concentration (EC50) at Gamma-secretase was found to be 0.097 µM.

Regarding `COc1nc(C2=NOCC(c3ccc(F)cc3)N2)ccc1-n1cnc(C)c1` (stereo not given), the EC50 at Gamma-secretase stood at 0.06 µM.

As for `COc1nc(C2=NOCC(c3cccc(C(F)(F)F)c3)N2)ccc1-n1cnc(C)c1` (stereo not given), the EC50 at Gamma-secretase was determined as 0.043 µM.

For the molecule `COc1nc(C2=NOC(C)C(c3ccc(Cl)c(F)c3)N2)ccc1-n1cnc(C)c1` (stereo not given), the Activity in the series with Rattus norvegicus [4] was 44%; in the series with Mus musculus it was 43%; in the series on Rattus norvegicus [6], 73%. In addition, the Ratio in series [5] came out at 2.4; in series [3] it was 2.6. Also, the EC90 in series [2] is 0.097 µM. The EC50 on Gamma-secretase worked out at 0.008 µM. In addition, the CL free in series [1] is 0.06 L/h/kg.

Turning to `COc1nc(C2=NOCC(c3ccc(Cl)c(C(F)(F)F)c3)N2)ccc1-n1cnc(C)c1` (stereo not given), the EC50 at Gamma-secretase was 0.008 µM. In series [1], the CL free amounted to 0.36 L/h/kg.

For the molecule `COc1nc(C2=NOCC(c3ccccc3)N2)ccc1-n1cnc(C)c1` (stereo in doubt; 7), the EC50 on Gamma-secretase came to 2 µM.

In the case of `COc1nc(C2=NOC(C)C(c3cccc(Cl)c3)N2)ccc1-n1cnc(C)c1` (stereo not given), the EC50 on Gamma-secretase is 0.014 µM. In series [1], this molecule yielded a CL free of 1.14 L/h/kg.

`COc1cccc(C2CON=C(c3ccc(-n4cnc(C)c4)c(OC)n3)N2)c1` (stereo not given): the EC50 at Gamma-secretase was determined as 0.197 µM.

As to `COc1nc(C2=NOCC(c3ccccc3)N2)ccc1-n1cnc(C)c1` (stereo in doubt; 7a), on Gamma-secretase, the EC50 is 0.097 µM. This molecule also registered a CL free in series [1] of 1.26 L/h/kg.

With `COc1nc(C2=NOCC(c3ccc(F)c(C(F)(F)F)c3)N2)ccc1-n1cnc(C)c1` (stereo not given), the Activity in the series with Mus musculus amounted to 41%. Further, the EC90 in series [2] is 0.268 µM. At Gamma-secretase, the EC50 was 0.019 µM. Moreover, the Ratio in series [3] came out at 0.7.

With `COc1nc(C2=NOCC(c3ccc(F)c(Cl)c3)N2)ccc1-n1cnc(C)c1` (stereo not given), the Activity in the series on Mus musculus was determined as 30%. Also, in series [2], the EC90 was 0.278 µM. Also, the EC50 on Gamma-secretase stood at 0.023 µM. The CL free in series [1] worked out at 0.78 L/h/kg. Further, in series [3], the Ratio stood at 1.5.

For `COc1nc(C2=NOCC(c3ccc(C(F)(F)F)cc3)N2)ccc1-n1cnc(C)c1` (stereo not given), in the series with Mus musculus, the Activity is recorded as 36%. Also, the EC90 in series [2] turned out to be 0.407 µM. The EC50 at Gamma-secretase is 0.034 µM. This molecule showed a CL free in series [1] of 0.72 L/h/kg. Further, the Ratio in series [3] was found to be 1.1.

As for `COc1nc(C2=NOC(C)C(c3ccc(Cl)cc3)N2)ccc1-n1cnc(C)c1` (stereo not given), the Activity in the series with Rattus norvegicus [4] turned out to be 41%; with Mus musculus it was 47%; in the series on Rattus norvegicus [6], 84%. Besides, the figures for the Ratio in series [5] and in series [3] were 0.3 and 4.5, respectively. Further, in series [2], the EC90 is 0.187 µM. For the same molecule, the EC50 on Gamma-secretase was found to be 0.016 µM. Also, in series [1], the CL free turned out to be 0.72 L/h/kg.

Regarding `COc1nc(C2=NOCC(c3ccc(Cl)c(C4CC4)c3)N2)ccc1-n1cnc(C)c1` (stereo not given), the EC50 at Gamma-secretase stood at 0.013 µM. The same molecule gave a CL free in series [1] of 16.4 L/h/kg.

Regarding `COc1nc(C2=NOC(C)(C)C(c3ccccc3)N2)ccc1-n1cnc(C)c1` (stereo not given), the EC50 on Gamma-secretase was 0.075 µM. In series [1], this molecule came in with a CL free of 0.3 L/h/kg.

As for `COc1nc(C2=NOC[C@H](c3cc4ccccc4o3)N2)ccc1-n1cnc(C)c1`, the Activity came out at 30% in the series with Rattus norvegicus [4], 43% in the series with Mus musculus and 58% in the series on Rattus norvegicus [6]. The Ratio in series [5] stood at 0.7; in series [3], 1.1. Further, the 90% effect concentration (EC90) in series [2] was found to be 0.383 µM. The 50% effective concentration (EC50) at Gamma-secretase amounted to 0.035 µM. Moreover, the CL free in series [1] stood at 3.06 L/h/kg.

Regarding `COc1nc(C2=NOCC(c3ccc(C(F)(F)F)c(Cl)c3)N2)ccc1-n1cnc(C)c1` (stereo not given), the concentration for a half-maximal effect (EC50) at Gamma-secretase stood at 0.01 µM.

Usually EC50 stands for the concentration that produces a half-maximal response. As usually defined, the EC90 is the point of the concentration-response curve where the effect stands at 90%.
